Counter-ions that a name gives are not always drawn.
Columns and labels:
norepinephrine uptake = experiment: Biogenic amine uptake inhibition in rat brain synaptosomes, norepinephrine; assay type: biochemical, rat (Sprague-Dawley); conditions: tritiated amine 0.1 μM, 37° C., 4 minutes; read-out: Biogenic Amine Uptake Inhibition IC50 Norephinephrine
Protocol: (§1) The ability of compounds of the invention to inhibit biogenic amine uptake is determined as outlined below.
(§2) Sprague-Dawley derived rats of either sex, weighing about 180-250 g, were killed by decapitation. The brains were immediately removed, placed on a glass plate chilled over crushed ice and dissected according to a modification of the method of Glowinski and Iversen (J. Neurochem. 13, 655-669, 1966). First, the rhombencephalon was separated by transverse section and discarded. The remaining tissue was bisected by a midline sagittal cut. The hypothalamus was removed using the anterior and posterior reference points, respectively. The hippocampus was peeled away and discarded and the striata were exposed and removed. Frontal cortical tissue was dissected from remaining brain structures. […] The tissues were placed in a cold Potter-Elvehjem glass homogenizer with 5 (cortex) or 10 (hypothalamus) and 20 (striatum) volumes of ice-cold 0.32M sucrose, pH 7.0 and homogenized by hand. The homogenate was centrifuged at 2500 rpm in a GLC centrifuge for 10 minutes in a refrigerated room. The supernatant fraction containing the synaptosomes was decanted, mixed thoroughly, and kept on crushed ice for use in the uptake studies.

serotonin uptake = experiment: Biogenic amine uptake inhibition in rat brain synaptosomes, serotonin; assay type: biochemical, rat (Sprague-Dawley); conditions: tritiated amine 0.1 μM, 37° C., 4 minutes
Protocol: as §1, §2

dopamine uptake = experiment: Biogenic amine uptake inhibition in rat brain synaptosomes, dopamine; assay type: biochemical, rat (Sprague-Dawley); conditions: tritiated amine 0.1 μM, 37° C., 4 minutes
Protocol: as §1, §2

[1] = test system: intraocular pressure of rabbits; experiment: Effects of topically administered compounds on intraocular pressure of rabbits; assay type: in vivo, rabbit (New Zealand albino); conditions: 0.3% soln., topical to cornea
Protocol: The effect on intraocular pressure of the compounds of the invention can be determined in rabbits by using the following method.
a. Method The intraocular pressure lowering effects of the compounds were evaluated in unanesthetized, male albino, New Zealand rabbits weighing 2.0 to 2.5 kg. The rabbits were placed in Plas Labs restraining devices for the duration of the experiment. Intraocular pressure (IOP) was measured with a Bausch and Lomb Applamatic Tonometer and recorded as the average of three individual readings at each time point in the experiment. Baseline IOP values were established at three time points separated by 30 minutes. Each compound or vehicle was applied topically to the cornea in a volume of 0.1 ml to one eye in each six rabbits. The contralateral eye was untreated. IOP was recorded at 5, 15, 30, 60 and 90 minutes after dosing.

alpha-2-receptor = experiment: Radioligand binding, alpha-2 adrenoceptor, rat cerebral cortices, [3H]-rauwolscine; conditions: ratio Ki alpha-1/Ki alpha-2
Protocol: (§3) The compounds were assessed for alpha-adrenergic receptor subtype selectivity by use of radioligand binding techniques as described previously (DeBernardis et.al. J. Med. Chem. 28, 1398 (1985)).

alpha-1-receptor = biological target: T1, alpha-1-receptor (Rattus norvegicus, UniProt P15823); experiment: Radioligand binding, alpha-1 adrenoceptor, rat liver homogenates, [3H]-prazosin; conditions: rat liver homogenates, [3H]-prazosin; read-out: Ki alpha-1
T1 construct: rat liver homogenates; from tissue; host or cells: rat liver homogenate
T1 sequence (P15823 1-515): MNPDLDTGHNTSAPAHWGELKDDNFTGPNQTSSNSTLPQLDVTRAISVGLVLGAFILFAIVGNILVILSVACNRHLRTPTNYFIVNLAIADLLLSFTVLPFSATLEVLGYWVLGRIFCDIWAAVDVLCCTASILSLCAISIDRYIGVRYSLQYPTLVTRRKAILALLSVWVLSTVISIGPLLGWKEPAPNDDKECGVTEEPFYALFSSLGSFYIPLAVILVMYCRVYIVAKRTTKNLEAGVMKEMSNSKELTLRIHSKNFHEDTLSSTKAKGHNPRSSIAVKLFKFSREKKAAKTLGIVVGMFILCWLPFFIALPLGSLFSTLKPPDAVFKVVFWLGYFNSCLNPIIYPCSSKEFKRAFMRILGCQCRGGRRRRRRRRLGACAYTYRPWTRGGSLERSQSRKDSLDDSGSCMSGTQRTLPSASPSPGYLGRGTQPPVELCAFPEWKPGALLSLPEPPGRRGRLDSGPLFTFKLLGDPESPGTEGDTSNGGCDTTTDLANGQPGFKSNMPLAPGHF
Protocol: as §3

Row | Compound | alpha-2 - Selectivity Ki alpha-1/Ki alpha-2 (alpha-2-receptor) | Ki (alpha-1-receptor) | also measured
1 | 8-Fluoro-5,6-methylenedioxy-1-(3-phenylpyrrolidino-1-methyl) tetralin hydrochloride [Example 160] |  |  | IC50 (norepinephrine uptake): 991 nM; IC50 (serotonin uptake): 1840 nM; IC50 (dopamine uptake): 2930 nM
2 | CN(CCc1ccccc1)CC1CCCc2cc(O)ccc21 (stereo not shown) [11 (HCl salt)] |  |  | % Change in Intraocular Pressure After Treatment Compared to Untreated Eye in Rabbits ([1]; 5 minutes): -38%; % Change in Intraocular Pressure After Treatment Compared to Untreated Eye in Rabbits ([1]; 15 minutes): -55%; % Change in Intraocular Pressure After Treatment Compared to Untreated Eye in Rabbits ([1]; 30 minutes): -54%; % Change in Intraocular Pressure After Treatment Compared to Untreated Eye in Rabbits ([1]; 60 minutes): -44%; % Change in Intraocular Pressure After Treatment Compared to Untreated Eye in Rabbits ([1]; 90 minutes): -20%
3 | CN(CCc1cccc(F)c1)CC1CCCc2cc(O)ccc21 (stereo not shown) [Example 10, 1-((N-Methylamino)methyl-N-(2-(m-fluorophenyl)ethyl))-6-hydroxy tetralin hydrochloride] |  |  | % Change in Intraocular Pressure After Treatment Compared to Untreated Eye in Rabbits ([1]; 5 minutes): -45%; % Change in Intraocular Pressure After Treatment Compared to Untreated Eye in Rabbits ([1]; 15 minutes): -31%; % Change in Intraocular Pressure After Treatment Compared to Untreated Eye in Rabbits ([1]; 30 minutes): -25%; % Change in Intraocular Pressure After Treatment Compared to Untreated Eye in Rabbits ([1]; 60 minutes): -36%; % Change in Intraocular Pressure After Treatment Compared to Untreated Eye in Rabbits ([1]; 90 minutes): -23%
4 | COc1ccc(C)c2c1CCCC2CN(C)CCc1cccs1 (stereo not shown) [Example 36, 1-((N Methylamino)methyl-N-(2-(2-thienyl)ethyl))-5-methoxy-8-methyl tetralin hydrochloride] | 95 | 655 nM | 
5 | CCOc1ccc2c(c1)CCCC2CN(C)CCc1cccc(N)c1 (stereo not shown) [Example 69, 1-((N-Methylamino)methyl-N-(2-(m-aminophenyl)ethyl))6-ethoxy tetralin dihydrochloride] | 98 | 1270 nM | 
6 | COc1ccc2c(c1)CCCC2CN1CCC(c2ccccc2)C1 (stereo not shown) [Example 121, 6-Methoxy-1-(3-phenylpyrrolidino-1-methyl) tetralin hydrochloride] | 95 | 95 nM | 
7 | CN(CCc1cccs1)CC1CCCc2c(Cl)cccc21 (stereo not shown) [Example 129, 1-((N-Methylamino)methyl-N-(2-(2-thieny)ethyl))5-chloro tetralin hydrochloride] | 55 | 198 nM | 
8 | c1ccc(C2CCN(CC3CCCc4c3ccc3c4OCO3)C2)cc1 (stereo not shown) [Example 143a, 5,6-Methylenedioxy-1-(3-phenylpyrrolidino-1-methyl) tetralin methanesulfonate] | 43 | 51 nM | 
9 | COc1cccc2c1CCCC2CN1CCC(c2cccs2)C1 (stereo not shown) [Example 146, hydrochloride] | 35 | 170 nM | 
10 | Fc1ccc2c(c1)CCCC2CN1CCC(c2ccccc2)C1 (stereo not shown) [Example 148, 6-Fluoro-1-(3-phenylpyrrolidino-1-methyl) tetralin methanesulfonate] | 19 | 126 nM | 
11 | COc1ccc2c(c1)CCC2CN1CCC(c2cccs2)C1 (stereo not shown) [Example 151, 5-Methoxy-1-(3-(2-thienyl)pyrrolidino-1-methyl) indane hydrochloride] | 71 | 177 nM | 
12 | COc1ccc2c(c1)CCC2CN1CCC(c2cccc(F)c2)C1 (stereo not shown) [Example 153, 5-Methoxy-1-(3-(m-fluorophenyl)pyrrolidino-1-methyl) indane hydrochloride] | 7 | 58 nM | 
13 | Nc1ccc2c(c1)CCCC2CN1CCC(c2ccccc2)C1 (stereo not shown) [Example 156, 6-Amino-1-(3-phenylpyrrolidino-1-methyl) tetralin dihydrochloride] | 21 | 125 nM | 
14 | CN(CCc1cccc(F)c1)CC1CCCc2c1ccc1c2OCCO1 (stereo not shown) [Example 167, 1-((N-Methylamino)methyl-N-(2-m-fluorophenethyl))-5,6-ethylenedioxy tetralin methanesulfonate] | 85 | 357 nM | 
15 | CN(c1ccc2c(c1)CCCC2CN1CCC(c2ccccc2)C1)S(C)(=O)=O (stereo not shown) [Example 193, 6-(N-methylmethylsulfonamido)-1-(3-phenylpyrrolidino-1methyl)tetralin hydrochloride] | 93 | 121 nM | 

From patent US5086074A, “1-aminomethyl-1,2,3,4-tetrahydronaphthalenes” (Abbott Laboratories, priority 1990, dated 1992)
